Tested on: PC-3-KQ and PC-3-KR cells
Assay: RNA-sequencing and differential gene expression
Assay type: cell-based, human
Conditions: RNA-Seq, PC-3-KQ cells

SMILES: CC(=O)Oc1ccccc1C(=O)Nc1ncc([N+](=O)[O-])s1 [Nitazoxanide]
- BDKRB2 Change (KQ-Control vs KQ-NTZ): DOWN
- BDKRB2 logFC (KQ-Control vs KQ-NTZ): -1.3479
- BRINP2 Change (KQ-Control vs KQ-NTZ): DOWN
- BRINP2 logFC (KQ-Control vs KQ-NTZ): -0.6846
- BTBD11 Change (KQ-Control vs KQ-NTZ): DOWN
- BTBD11 logFC (KQ-Control vs KQ-NTZ): -1.0629
- C2orf78 Change (KQ-Control vs KQ-NTZ): DOWN
- C2orf78 logFC (KQ-Control vs KQ-NTZ): -0.8606
- CACNG8 Change (KQ-Control vs KQ-NTZ): DOWN
- CACNG8 logFC (KQ-Control vs KQ-NTZ): -1.0729
- CAPSL Change (KQ-Control vs KQ-NTZ): DOWN
- CAPSL logFC (KQ-Control vs KQ-NTZ): -0.8068
- CD14 Change (KQ-Control vs KQ-NTZ): DOWN
- CD14 logFC (KQ-Control vs KQ-NTZ): -2.3874
- CEP19 Change (KQ-Control vs KQ-NTZ): DOWN
- CEP19 logFC (KQ-Control vs KQ-NTZ): -0.5995
- CNTNAP3B Change (KQ-Control vs KQ-NTZ): DOWN
- CNTNAP3B logFC (KQ-Control vs KQ-NTZ): -1.4339
- COL4A6 Change (KQ-Control vs KQ-NTZ): DOWN
- COL4A6 logFC (KQ-Control vs KQ-NTZ): -0.6049
- CSF3 Change (KQ-Control vs KQ-NTZ): DOWN
- CSF3 logFC (KQ-Control vs KQ-NTZ): -0.9191
- CXCL5 Change (KQ-Control vs KQ-NTZ): DOWN
- CXCL5 logFC (KQ-Control vs KQ-NTZ): -1.0464
- DEPTOR Change (KQ-Control vs KQ-NTZ): DOWN
- DEPTOR logFC (KQ-Control vs KQ-NTZ): -0.7982
- DMC1 Change (KQ-Control vs KQ-NTZ): DOWN
- DMC1 logFC (KQ-Control vs KQ-NTZ): -0.9749
- DRP2 Change (KQ-Control vs KQ-NTZ): DOWN
- DRP2 logFC (KQ-Control vs KQ-NTZ): -1.0796
- ECM2 Change (KQ-Control vs KQ-NTZ): DOWN
- ECM2 logFC (KQ-Control vs KQ-NTZ): -0.755
- EFCAB6 Change (KQ-Control vs KQ-NTZ): DOWN
- EFCAB6 logFC (KQ-Control vs KQ-NTZ): -0.8325
- FAM43A Change (KQ-Control vs KQ-NTZ): DOWN
- FAM43A logFC (KQ-Control vs KQ-NTZ): -1.1246
- FAM83D Change (KQ-Control vs KQ-NTZ): DOWN
- FAM83D logFC (KQ-Control vs KQ-NTZ): -0.5981
- FAM186B Change (KQ-Control vs KQ-NTZ): DOWN
- FAM186B logFC (KQ-Control vs KQ-NTZ): -0.6856
- FANCI Change (KQ-Control vs KQ-NTZ): DOWN
- FANCI logFC (KQ-Control vs KQ-NTZ): -0.7453
- FANCL Change (KQ-Control vs KQ-NTZ): DOWN
- FANCL logFC (KQ-Control vs KQ-NTZ): -0.6097
- FCGBP Change (KQ-Control vs KQ-NTZ): DOWN
- FCGBP logFC (KQ-Control vs KQ-NTZ): -2.5743
- FLI1 Change (KQ-Control vs KQ-NTZ): DOWN
- FLI1 logFC (KQ-Control vs KQ-NTZ): -0.8219
- FLRT1 Change (KQ-Control vs KQ-NTZ): DOWN
- FLRT1 logFC (KQ-Control vs KQ-NTZ): -0.8174
- FLT1 Change (KQ-Control vs KQ-NTZ): DOWN
- FLT1 logFC (KQ-Control vs KQ-NTZ): -0.8
- FOXI1 Change (KQ-Control vs KQ-NTZ): DOWN
- FOXI1 logFC (KQ-Control vs KQ-NTZ): -1.9605
- FOXP3 Change (KQ-Control vs KQ-NTZ): DOWN
- FOXP3 logFC (KQ-Control vs KQ-NTZ): -1.1132
- FSD2 Change (KQ-Control vs KQ-NTZ): DOWN
- FSD2 logFC (KQ-Control vs KQ-NTZ): -1.2199
- FZD4 Change (KQ-Control vs KQ-NTZ): DOWN
- FZD4 logFC (KQ-Control vs KQ-NTZ): -1.1759
- GBX2 Change (KQ-Control vs KQ-NTZ): DOWN
- GBX2 logFC (KQ-Control vs KQ-NTZ): -0.9793
- GPR19 Change (KQ-Control vs KQ-NTZ): DOWN
- GPR19 logFC (KQ-Control vs KQ-NTZ): -0.6847
- GRAMD2A Change (KQ-Control vs KQ-NTZ): DOWN
- GRAMD2A logFC (KQ-Control vs KQ-NTZ): -1.0971
- H3C1 Change (KQ-Control vs KQ-NTZ): DOWN
- H3C1 logFC (KQ-Control vs KQ-NTZ): -0.9324
- HAS3 Change (KQ-Control vs KQ-NTZ): DOWN
- HAS3 logFC (KQ-Control vs KQ-NTZ): -1.3005
- HPSE2 Change (KQ-Control vs KQ-NTZ): DOWN
- HPSE2 logFC (KQ-Control vs KQ-NTZ): -0.9315
- HSD3B1 Change (KQ-Control vs KQ-NTZ): DOWN
- HSD3B1 logFC (KQ-Control vs KQ-NTZ): -0.7148
- IGF2BP1 Change (KQ-Control vs KQ-NTZ): DOWN
- IGF2BP1 logFC (KQ-Control vs KQ-NTZ): -0.8373
- IGFBP4 Change (KQ-Control vs KQ-NTZ): DOWN
- IGFBP4 logFC (KQ-Control vs KQ-NTZ): -1.0441
- IGSF23 Change (KQ-Control vs KQ-NTZ): DOWN
- IGSF23 logFC (KQ-Control vs KQ-NTZ): -0.7201

Source: PMC9945734 (BMC Medicine, 2023)
